In patent publication US20230219964A1, “ANTIBACTERIAL AND ANTIFUNGAL PLEUROMUTILIN CONJUGATES” (SYDDANSK UNIVERSITET, priority 2020, published 2023):
≈ marks a conversion by molar mass, not a printed value. Read-outs that look alike come from different tables or passages of the source.

Experiments:
S. pneumonia cells = assay: MIC in vitro broth micro-dilution assay, S. pneumonia; format: cell-based, Streptococcus pneumonia; conditions: Streptococcus pneumoniae; lowest concentration to fully inhibit visible growth (OD600); clinical isolate; read-out: in vitro susceptibility (MIC) S. Pneumonia
Method: (§1) Bacterial susceptibility was established through an in vitro cell-based broth micro-dilution assay. To produce accurate and reproducible MIC-values, a procedure was used which follows the guidelines set by the Clinical and Laboratory Standards Institute (CLSI, USA) and the European Committee on Antimicrobial Susceptibility Testing (EUCAST). The micro-dilutions were carried out in 96-well plates, according to FIG. 3, wherein column 1 is a growth control, Columns 2 to 11 are dilutions of 1×, 2×, 4×, 8×, 16×, 32×, 64×, 128×, 256×, 512× respectively, and column 12 is a sterile control. To further increase the reliability of each susceptibility test, inoculation involved the use of three independent overnight cultures (ON1-ON3) thus giving rise to […]. Furthermore, each ON was added to two individual dilution rows, giving rise to […]. The standard inoculum was set to ˜5-10^5 colony-forming units (CFU) mL^−1. This was verified by dilution onto agar plates after each overall run.
(§2) The applied procedure was:
(§3) 1.1 MH or BHI agar plates for dilutions were created, 1 plate per overnight (ON) culture and MH or BHI media. 1.2 Day 1: Preparation of ON cultures of the bacterial strain in question, by inoculation of a single colony in 5 mL of MH or BHI media. Then incubation at 37° C. with aeration for approximately 16-20 hours. Biological triplicates were created by inoculation from 3 different colonies per strain.
(§4) 1.3 Day 2: A 96-well plate with the antibiotic/compound in question was prepared as according to FIG. 3: 1.4 In a 15 mL falcon tube, an appropriate volume of a 1000 μg/mL antibiotic/compound DMSO stock was diluted with MH or BHI media such that a 2× concentration and total volume of 10 mL was achieved. 1.5 A multi-channel pipette was used in the following. 1.6 Column 1 was used for growth control, so no antibiotic/compound was added to that column. 1.7 200 μl of 2× concentration of the antibiotic/compound was added to column 2. Technical duplicates were always created, thus 2 columns per ON culture. 1.8 100 μl of MH or BHI media was added to columns 1, 3-11 and 200 μl of MH or BHI media to column 12. 1.9 100 μl was transferred from column 2 to column 3. The same pipetting tips were used to transfer 100 μL from column 3 to 4. This scheme was repeated until column 11 where 100 μl was discarded after re-suspending. Column 12 was used as a sterile control, so no antibiotic/compound was added to that column. Each transferring involved pipetting up and down 5 to 7 times. 1.10 The plates were fully dried for CFU in the 42° C. incubator, 4× dilutions in triplicates per one plate.
(§5) 1.11 The optical density of bacterial cells in the ON culture was measured at wavelength 600 nm (OD600). Then the ON culture was diluted to an OD600=0.1. 1.12 Then the OD600 was re-measured to make certain that it was between 0.08 and 0.13. 1.13 The prepared 0.1 culture of 1.12 was diluted 100× more by transferring of 100 μl thereof, to 10 ml of MH or BHI media (enough for a 96-well plate). 1.14 Then 200 μl of the 100× dilution in 1.13 was transferred to Eppendorf tubes and kept cold until use. 1.15 100 μl of culture with an OD600 on approximately 0.001 was dispensed to each well of columns 1 to 11. 1.16 The plate was closed. Covered with aluminium foil and small holes were created with a 100-200 μL tip.
(§6) 1.17 The 96-well plate was then incubated at 37° C. with agitation and left for 16-hours.
(§7) 1.18 Verification of standard inoculum: The 100× diluted culture of 1.13 was used to create 10^−1 to 10^−4 dilutions in PBS/0.9% saline (100 μl sample to 900 μl PBS, mix well and continue until 10^−4). 1.19 10 μl of the 10^−2, 10^−3 and 10^−4 dilutions in 1.18 were spotted onto very dry MH or BHI plates in triplicates. 1.20 Then incubated overnight at 37° C. 1.21 The plates were examined manually or by using the plate reader.

[1] = system: vancomycin-resistant enterococci (VRE) cells, VRE 5; assay: MIC in vitro broth micro-dilution assay, VRE 5; format: cell-based; conditions: Enterococcus, VRE; lowest concentration to fully inhibit visible growth (OD600); clinical isolate, ampicillin, ciprofloxacin, vancomycin and linezolid resistant; read-out: in vitro susceptibility (MIC) VRE 5
Method: as §1, §2, §3, §4, §5, §6, §7

E. faecalis cells = assay: MIC in vitro broth micro-dilution assay, E. faecalis; format: cell-based, Enterococcus faecalis; conditions: Enterococcus faecalis; lowest concentration to fully inhibit visible growth (OD600); clinical isolate; read-out: in vitro susceptibility (MIC) E. Faecalis
Method: as §1, §2, §3, §4, §5, §6, §7

[2] = system: vancomycin-resistant enterococci (VRE) cells, VRE 1; assay: MIC in vitro broth micro-dilution assay, VRE 1; format: cell-based; conditions: Enterococcus, VRE; lowest concentration to fully inhibit visible growth (OD600); clinical isolate, ampicillin, ciprofloxacin and vancomycin resistant; read-out: in vitro susceptibility (MIC) VRE 1
Method: as §1, §2, §3, §4, §5, §6, §7

[3] = system: Multi-resistant Staphylococcus aureus (MRSA) USA300 cells; assay: MIC in vitro broth micro-dilution assay, MRSA USA300; format: cell-based; conditions: Staphylococcus aureus
Method: as §1, §2, §3, §4, §5, §6, §7

[4] = lowest concentration to fully inhibit visible growth (OD600), ATCC strain, read-out: in vitro susceptibility (MIC) MRSA USA3000

| Structure (SMILES) | MIC (S. pneumonia cells) [µg/mL] | MIC [1] [µg/mL] | MIC (E. faecalis cells) [µg/mL] | MIC [2] [µg/mL] | MIC [3, 4] [µg/mL] | MIC ([3]; read-out: MIC value, MRSA USA300 cells) [µg/mL] |
| --- | --- | --- | --- | --- | --- | --- |
| C=C[C@]1(C)C[C@@H](OC(=O)Cn2cc(-c3ccc(Cn4cnc5c(N)nc(F)nc54)cc3)nn2)[C@]2(C)[C@H](C)CC[C@]3(CCC(=O)[C@H]32)[C@@H](C)[C@@H]1O [C5, 22-[4-(4-((6-Amino-2-fluoro-9H-purin-9-yl)methyl)phenyl)-1H-1,2,3-triazol-1-yl]-22-deoxypleuromutilin] | – | – | – | – | 0.06 (≈ 0.0894 µM) | – |
| C=C[C@]1(C)C[C@@H](OC(=O)CSC2CC[C@@H](N)C[C@H]2O)[C@]2(C)[C@H](C)CC[C@]3(CCC(=O)[C@H]32)[C@@H](C)[C@@H]1O.CC(=O)O (stereo partly shown) [Lefamulin.Ac, reference compound] | 0.12 | 0.12 | 0.06 | 0.12 | – | – |
| C=C[C@]1(C)C[C@@H](CC(=O)Cn2cc(-c3cccc(-n4cnc5c(N)ncnc54)c3)nn2)[C@]2(C)[C@H](C)CC[C@]3(CCC(=O)[C@H]32)[C@@H](C)[C@@H]1O [prior art compound 7, reference compound] | – | – | – | – | 0.06 (≈ 0.0942 µM) | – |
| C=C[C@]1(C)C[C@@H](CC(=O)Cn2cc(-c3ccc(-n4cnc5c(N)ncnc54)cc3)nn2)[C@]2(C)[C@H](C)CC[C@]3(CCC(=O)[C@H]32)[C@@H](C)[C@@H]1O [prior art compound 8, reference compound] | – | – | – | – | 0.5 (≈ 0.785 µM) | – |

Continued, values first:

| MIC (S. pneumonia cells) [µg/mL] | MIC [1] [µg/mL] | MIC (E. faecalis cells) [µg/mL] | MIC [2] [µg/mL] | MIC [3, 4] [µg/mL] | MIC ([3]; read-out: MIC value, MRSA USA300 cells) [µg/mL] | Structure (SMILES) |
| --- | --- | --- | --- | --- | --- | --- |
| 0.05 (≈ 0.0766 µM) | 0.25 (≈ 0.383 µM) | 0.25 (≈ 0.383 µM) | 0.25 (≈ 0.383 µM) | 0.03 (≈ 0.046 µM) | 0.03 (≈ 0.046 µM) | C=C[C@]1(C)C[C@@H](OC(=O)Cn2cc(-c3ccc(Cn4cnc5c(N)ncnc54)cc3)nn2)[C@]2(C)[C@H](C)CC[C@]3(CCC(=O)[C@H]32)[C@@H](C)[C@@H]1O [C1] |
| 4 (≈ 6.02 µM) | > 8 | 8 (≈ 12 µM) | > 8 | 0.25 (≈ 0.376 µM) | – | C=C[C@]1(C)C[C@@H](OC(=O)Cn2cc(-c3ccc(CN4C(=O)c5ccccc5C4=O)cc3)nn2)[C@]2(C)[C@H](C)CC[C@]3(CCC(=O)[C@H]32)[C@@H](C)[C@@H]1O [C2, 22-[4-(4-((N-phthalimide)methyl)phenyl)-1H-1,2,3-triazol-1-yl]-22-deoxypleuromutilin] |
| 4 (≈ 7.47 µM) | 1 (≈ 1.87 µM) | 2 (≈ 3.73 µM) | 1 (≈ 1.87 µM) | 0.25 (≈ 0.467 µM) | – | C=C[C@]1(C)C[C@@H](OC(=O)Cn2cc(-c3ccc(CO)cc3)nn2)[C@]2(C)[C@H](C)CC[C@]3(CCC(=O)[C@H]32)[C@@H](C)[C@@H]1O [C4, 22-[4-(4-(hydroxymethyl)phenyl)-1H-1,2,3-triazol-1-yl]-22-deoxypleuromutilin] |
| 0.25 (≈ 0.374 µM) | 0.25 (≈ 0.374 µM) | 0.25 (≈ 0.374 µM) | 0.25 (≈ 0.374 µM) | 0.06 (≈ 0.0898 µM) | – | C=C[C@]1(C)C[C@@H](OC(=O)Cn2cc(-c3ccc(Cn4cnc5c(N)nc(N)nc54)cc3)nn2)[C@]2(C)[C@H](C)CC[C@]3(CCC(=O)[C@H]32)[C@@H](C)[C@@H]1O [C6, 22-[4-(4-((2,6-Diamino-9H-purin-9-yl)methyl)phenyl)-1H-1,2,3-triazol-1-yl]-22-deoxypleuromutilin] |
| – | – | – | – | 0.5 (≈ 0.8 µM) | – | C=C[C@]1(C)C[C@@H](OC(=O)Cn2cc(-c3cccc(NC(=O)c4ccccc4)c3)nn2)[C@]2(C)[C@H](C)CC[C@]3(CCC(=O)[C@H]32)[C@@H](C)[C@@H]1O [C14, 22-[4-(3-benzamidophenyl)-1,2,3-triazole-1-yl]-22-deoxypleuromutilin] |
| – | – | – | – | 0.12 (≈ 0.188 µM) | – | C=C[C@]1(C)C[C@@H](OC(=O)Cn2cc(-c3cccc(Oc4ncnc5[nH]cnc45)c3)nn2)[C@]2(C)[C@H](C)CC[C@]3(CCC(=O)[C@H]32)[C@@H](C)[C@@H]1O [C16, 22-[4-(3-((9H-purin-6-yl)oxy)phenyl)-1,2,3-triazole-1-yl]-22-deoxypleuromutilin] |
| – | – | – | – | 0.12 (≈ 0.183 µM) | – | C=C[C@]1(C)C[C@@H](OC(=O)Cn2cc(-c3cccc(Oc4nc(N)nc5[nH]cnc45)c3)nn2)[C@]2(C)[C@H](C)CC[C@]3(CCC(=O)[C@H]32)[C@@H](C)[C@@H]1O [C17, 22-[4-(3-((2-amino-9H-purin-6-yl)oxy)phenyl)-1,2,3-triazole-1-yl]-22-deoxypleuromutilin] |
